Legend:
TLR1/2 = biological target: T1, TLR1/2 (Homo sapiens, UniProt O60603); experiment: HEK-Blue hTLR2 SEAP reporter assay, Pam3CSK4-activated (TLR1/2); type: cell-based; settings: hTLR2 HEK cells activated with Pam3CSK4; mean of at least three determinations; read-out: IC50 (PAM-3; μM)
T1 construct: host or cells: HEK293 (HEK-Blue hTLR2)
Text: (§1) Human embryonic kidney (HEK) Blue hTLR2 secreted embryonic alkaline phosphatase (SEAP) reporter 293 cells, expressing the human TLR2 gene; HEK-Blue hTLR3 SEAP reporter 293 cells, expressing the human TLR3 gene; HEK-Blue hTLR4 SEAP reporter 293 cells, expressing the human TLR4 gene; HEK-Blue hTLR7 SEAP reporter 293 cells, expressing the human TLR7 gene; and HEK-Blue hTLR8 SEAP reporter 293 cells, expressing the human TLR8 gene. HEK Blue cells expressing recombinant human TLRs were obtained by cotransfection of the human TLR2, TLR3, TLR4, TLR7, TLR8, or TLR9 and SEAP (secreted embryonic alkaline phosphatase) genes into HEK293 cells. The SEAP reporter gene was placed under the control of a minimal promoter fused to five NFĸB and AP-1 binding sites. Stimulation with TLRs ligands activates NFĸB and AP-1 that induce the production of SEAP. Therefore, these cells are designed for studying the stimulation of TLRs by monitoring the activation of NFĸB/AP-1. These NFĸB reporter cell lines were used as a primary screening tool due to their robust and well-characterized responses to TLRs activators and inhibitors. […]

TLR2/6 = biological target: T2, TLR2/6 (Homo sapiens, UniProt O60603); experiment: HEK-Blue hTLR2 SEAP reporter assay, Pam2CSK4-activated (TLR2/6); type: cell-based; settings: hTLR2 HEK cells activated with Pam2CSK4; mean of at least three determinations; read-out: IC50 (PAM-2; μM)
T2 construct: host or cells: HEK293 (HEK-Blue hTLR2)
T2 sequence (O60603 21-784): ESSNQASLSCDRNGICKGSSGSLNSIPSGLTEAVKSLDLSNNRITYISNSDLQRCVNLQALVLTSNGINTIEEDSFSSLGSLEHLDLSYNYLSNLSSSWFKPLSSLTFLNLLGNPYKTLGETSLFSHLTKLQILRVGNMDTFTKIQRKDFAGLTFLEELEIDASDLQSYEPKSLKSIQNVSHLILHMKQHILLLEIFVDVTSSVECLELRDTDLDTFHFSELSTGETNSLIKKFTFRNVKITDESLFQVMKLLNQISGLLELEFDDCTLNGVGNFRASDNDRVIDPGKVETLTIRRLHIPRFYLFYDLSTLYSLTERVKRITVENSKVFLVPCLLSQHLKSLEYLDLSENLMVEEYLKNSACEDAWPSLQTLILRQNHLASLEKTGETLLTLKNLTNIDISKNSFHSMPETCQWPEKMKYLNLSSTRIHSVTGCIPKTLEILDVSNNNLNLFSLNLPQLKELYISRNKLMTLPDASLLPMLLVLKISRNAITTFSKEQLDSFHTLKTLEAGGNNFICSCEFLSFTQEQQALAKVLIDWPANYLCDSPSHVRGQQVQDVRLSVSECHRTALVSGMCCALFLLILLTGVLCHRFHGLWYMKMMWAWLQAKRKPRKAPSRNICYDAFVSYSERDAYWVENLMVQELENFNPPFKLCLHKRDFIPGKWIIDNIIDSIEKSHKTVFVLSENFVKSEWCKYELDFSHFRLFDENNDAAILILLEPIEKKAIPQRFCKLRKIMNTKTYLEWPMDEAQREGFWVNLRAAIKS
Text: as §1

T1 sequence (O60603 21-784): as above

- IC50 (TLR1/2): 40.2 µM
- IC50 (TLR2/6): 61.6 µM
Compound: COc1cccc(C=O)c1O [O-vanillin]
